Experimental data published in ChEMBL document CHEMBL1127588, “A structure-activity relationship study of benzylic modifications of 4-[1-(1-naphthyl)ethyl]-1H-imidazoles on alpha 1- and alpha 2-adrenergic receptors” (J Med Chem, 1994).

What was measured:
[1] = biological target: T1, Adrenergic receptor alpha-2 (Rattus norvegicus, UniProt P22086+P19328+P22909); assay: Tested for its binding affinity against alpha-2 receptor in rat brain membrane; assay type: cell membranes
T1 sequence (P22086 whole entry): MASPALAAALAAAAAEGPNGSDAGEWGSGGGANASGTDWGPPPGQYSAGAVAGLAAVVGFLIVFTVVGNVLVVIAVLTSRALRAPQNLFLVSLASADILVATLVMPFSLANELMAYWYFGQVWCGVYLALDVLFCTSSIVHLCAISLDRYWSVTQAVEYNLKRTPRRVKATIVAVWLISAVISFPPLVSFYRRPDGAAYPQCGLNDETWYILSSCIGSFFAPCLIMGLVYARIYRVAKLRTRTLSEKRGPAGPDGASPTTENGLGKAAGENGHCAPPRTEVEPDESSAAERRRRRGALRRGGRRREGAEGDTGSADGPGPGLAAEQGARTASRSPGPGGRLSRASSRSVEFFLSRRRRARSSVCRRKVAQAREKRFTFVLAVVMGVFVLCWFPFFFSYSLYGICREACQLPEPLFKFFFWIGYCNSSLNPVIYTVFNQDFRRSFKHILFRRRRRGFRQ
T1 sequence (P19328 whole entry): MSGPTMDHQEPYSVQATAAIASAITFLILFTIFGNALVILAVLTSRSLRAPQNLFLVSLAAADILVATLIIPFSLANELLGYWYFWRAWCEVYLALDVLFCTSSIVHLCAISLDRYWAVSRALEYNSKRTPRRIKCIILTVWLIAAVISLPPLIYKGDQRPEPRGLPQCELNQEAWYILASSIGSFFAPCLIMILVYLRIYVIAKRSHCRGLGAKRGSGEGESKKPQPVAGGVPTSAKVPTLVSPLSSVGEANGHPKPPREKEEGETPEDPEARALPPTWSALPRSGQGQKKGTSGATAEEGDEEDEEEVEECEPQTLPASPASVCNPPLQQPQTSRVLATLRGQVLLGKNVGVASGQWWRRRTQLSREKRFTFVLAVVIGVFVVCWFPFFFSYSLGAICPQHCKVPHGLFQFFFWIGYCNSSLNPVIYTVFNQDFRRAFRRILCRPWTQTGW
T1 sequence (P22909 whole entry): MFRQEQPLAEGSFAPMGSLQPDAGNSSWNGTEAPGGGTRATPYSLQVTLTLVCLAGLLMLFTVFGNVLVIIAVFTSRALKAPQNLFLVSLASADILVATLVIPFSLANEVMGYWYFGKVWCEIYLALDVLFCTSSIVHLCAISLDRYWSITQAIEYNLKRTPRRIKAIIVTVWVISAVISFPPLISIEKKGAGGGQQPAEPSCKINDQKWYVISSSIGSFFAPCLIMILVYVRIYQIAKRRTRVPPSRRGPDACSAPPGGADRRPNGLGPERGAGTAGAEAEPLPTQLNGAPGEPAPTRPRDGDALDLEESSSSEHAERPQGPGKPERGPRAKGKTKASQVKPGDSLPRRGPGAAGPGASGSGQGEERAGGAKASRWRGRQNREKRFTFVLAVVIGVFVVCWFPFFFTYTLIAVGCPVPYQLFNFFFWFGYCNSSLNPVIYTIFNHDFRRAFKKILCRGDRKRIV

[2] = biological target: T2, Adrenergic receptor alpha-1 (Homo sapiens, UniProt P35348+P25100+P35368); assay: Tested for its inhibitory activity against alpha-1 adrenoceptor in guinea pig ileum; assay type: tissue-based, Cavia porcellus; settings: target entry is the homologue from another species
T2 sequence (P35348 whole entry): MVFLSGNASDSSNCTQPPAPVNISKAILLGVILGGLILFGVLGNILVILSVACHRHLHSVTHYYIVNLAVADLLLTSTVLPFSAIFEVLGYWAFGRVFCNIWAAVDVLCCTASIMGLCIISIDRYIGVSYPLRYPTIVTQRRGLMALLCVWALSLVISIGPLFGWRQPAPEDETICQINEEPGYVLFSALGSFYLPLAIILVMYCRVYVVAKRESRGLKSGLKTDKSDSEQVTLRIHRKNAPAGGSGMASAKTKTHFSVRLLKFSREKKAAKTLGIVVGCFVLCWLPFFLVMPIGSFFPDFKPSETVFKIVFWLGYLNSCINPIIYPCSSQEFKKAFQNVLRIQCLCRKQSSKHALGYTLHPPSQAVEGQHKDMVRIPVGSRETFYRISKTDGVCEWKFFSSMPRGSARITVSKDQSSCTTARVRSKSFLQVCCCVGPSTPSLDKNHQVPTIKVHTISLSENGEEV
T2 sequence (P25100 whole entry): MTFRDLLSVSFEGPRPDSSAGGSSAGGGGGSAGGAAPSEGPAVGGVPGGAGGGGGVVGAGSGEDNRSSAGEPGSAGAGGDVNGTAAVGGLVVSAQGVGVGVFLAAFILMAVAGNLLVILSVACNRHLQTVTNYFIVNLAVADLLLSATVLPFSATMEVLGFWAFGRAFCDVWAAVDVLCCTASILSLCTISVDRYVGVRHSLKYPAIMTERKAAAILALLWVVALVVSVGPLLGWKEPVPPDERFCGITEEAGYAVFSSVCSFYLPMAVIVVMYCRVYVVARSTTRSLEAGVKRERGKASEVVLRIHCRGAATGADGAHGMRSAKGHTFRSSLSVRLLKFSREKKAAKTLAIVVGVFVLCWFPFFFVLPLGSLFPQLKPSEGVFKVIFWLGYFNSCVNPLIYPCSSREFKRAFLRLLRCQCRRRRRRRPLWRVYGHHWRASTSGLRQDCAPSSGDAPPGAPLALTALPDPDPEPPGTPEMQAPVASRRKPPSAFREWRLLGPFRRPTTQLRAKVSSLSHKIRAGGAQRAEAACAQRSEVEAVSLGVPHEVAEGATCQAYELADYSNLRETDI
T2 sequence (P35368 whole entry): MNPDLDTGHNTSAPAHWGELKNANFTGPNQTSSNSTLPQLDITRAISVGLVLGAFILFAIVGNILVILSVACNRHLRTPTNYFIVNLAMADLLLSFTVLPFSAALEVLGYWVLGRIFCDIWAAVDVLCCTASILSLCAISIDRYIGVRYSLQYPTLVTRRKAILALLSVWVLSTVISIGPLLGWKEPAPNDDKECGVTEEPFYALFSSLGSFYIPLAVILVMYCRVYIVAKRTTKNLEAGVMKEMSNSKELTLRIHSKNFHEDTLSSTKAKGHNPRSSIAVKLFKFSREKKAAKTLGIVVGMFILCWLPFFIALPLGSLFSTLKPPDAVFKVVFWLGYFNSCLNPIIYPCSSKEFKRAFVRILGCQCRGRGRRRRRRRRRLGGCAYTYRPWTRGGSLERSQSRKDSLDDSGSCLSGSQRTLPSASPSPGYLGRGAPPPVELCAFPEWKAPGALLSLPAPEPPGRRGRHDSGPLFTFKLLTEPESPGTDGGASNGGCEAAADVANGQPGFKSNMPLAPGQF

Structure (SMILES) | Ki [1] | EC50 [2]
Cc1cccc(C(C)c2c[nH]cn2)c1C (stereo not drawn) [MEDETOMIDINE] | 19 nM | 1165 nM
Cl.c1ccc2c(Cc3c[nH]cn3)cccc2c1 | 68 nM | 2113 nM
Cl.OC(c1c[nH]cn1)c1cccc2ccccc12 (stereo not drawn) | 8810 nM | 12692 nM
CC(c1c[nH]cn1)c1cccc2ccccc12 (stereo in doubt; S-(+)-2) | 11 nM | 8273 nM
COC(c1c[nH]cn1)c1cccc2ccccc12.Cl (stereo not drawn) | 8582 nM | –
CC(c1c[nH]cn1)c1cccc2ccccc12 (stereo in doubt; 2) | 17 nM | 5793 nM
CC(c1c[nH]cn1)c1cccc2ccccc12 (stereo in doubt; S-(-)-2) | 24 nM | 10814 nM
